Source: ChEMBL document CHEMBL3868595, “Plazomicin is effective in a non-human primate pneumonic plague model” (Bioorg Med Chem, 2016)

Assays:
Yersinia pestis [1] = assay: Antibacterial activity against Yersinia pestis Colorado 92 infected in African green monkey B6861 model assessed as bacterial burden in brain at 6.25 mg/kg, iv administered within 6 hrs post onset of sustained fever as 30 mins infusion for 5 days (reference value: 1.9 10^6CFU/g); format: functional, CO92
African green monkey [2] = assay: Toxicity in African green monkey B5994 model infected with Yersinia pestis Colorado 92 assessed as blood urea nitrogen level at 25 mg/kg, iv administered within 6 hrs post onset of sustained fever as 30 mins infusion for 10 days (reference value: 15 mg/dl); format: organism-based; details: chlorocebus sabaeus, in vivo
African green monkey [3] = assay: Toxicity in African green monkey 7337 model infected with Yersinia pestis Colorado 92 assessed as blood urea nitrogen level at 25 mg/kg, iv administered within 6 hrs post onset of sustained fever as 30 mins infusion for 10 days (reference value: 15 mg/dl); format: organism-based; details: chlorocebus sabaeus, in vivo
Yersinia pestis [4] = assay: Antibacterial activity against Yersinia pestis Colorado 92 infected in African green monkey B6988 model assessed as bacterial burden in spleen at 6.25 mg/kg, iv administered within 6 hrs post onset of sustained fever as 30 mins infusion for 5 days (reference value: 1.6 10^9CFU/g); format: functional, CO92
Yersinia pestis [5] = assay: (§1) Antibacterial activity against Yersinia pestis Colorado 92 infected in African green monkey B6127 model assessed as bacterial burden in liver at 25 mg/kg, iv administered within 6 hrs post onset of sustained fever as 30 mins infusion for 10 days (reference value: 5.2 10^8CFU/g); format: functional, CO92
[6] = Elimination half life in African green monkey blood at 35 mg/kg administered as iv infusion twice daily for 7 consecutive days measured on day 7 by LC-MS/MS analysis; format: ADME, organism-based; details: chlorocebus aethiops, read-out: beta t1/2 (converted)
African green monkey [7] = assay: Toxicity in African green monkey 7972 model infected with Yersinia pestis Colorado 92 assessed as blood urea nitrogen level at 25 mg/kg, iv administered within 6 hrs post onset of sustained fever as 30 mins infusion for 10 days (reference value: 13 mg/dl); format: organism-based; details: chlorocebus sabaeus, in vivo
African green monkey [8] = assay: Toxicity in African green monkey B5994 model infected with Yersinia pestis Colorado 92 assessed as serum gamma glutamyl-transferase level at 25 mg/kg, iv administered within 6 hrs post onset of sustained fever as 30 mins infusion for 10 days (reference value: 35 IU/L); format: organism-based; details: chlorocebus sabaeus, in vivo
African green monkey [9] = assay: Toxicity in African green monkey 7653 model infected with Yersinia pestis Colorado 92 assessed as serum lactate dehydrogenase level at 25 mg/kg, iv administered within 6 hrs post onset of sustained fever as 30 mins infusion for 10 days (reference value: 319 IU/L); format: organism-based; details: chlorocebus sabaeus, in vivo
[10] = Clearance in African green monkey blood at 35 mg/kg administered as iv infusion twice daily for 7 consecutive days measured on day 1 by LC-MS/MS analysis; format: ADME, organism-based; details: chlorocebus aethiops
[11] = Toxicity in African green monkey 7653 model infected with Yersinia pestis Colorado 92 assessed as total white blood cell count at 25 mg/kg, iv administered within 6 hrs post onset of sustained fever as 30 mins infusion for 10 days (reference value: 7.5 10^3/microL); format: organism-based; details: chlorocebus aethiops, in vivo
Yersinia pestis [12] = assay: Antibacterial activity against Yersinia pestis Colorado 92 infected in African green monkey B6415 model assessed as bacterial burden in brain at 25 mg/kg, iv administered within 6 hrs post onset of sustained fever as 30 mins infusion for 5 days (reference value: 1.9 10^6CFU/g); format: functional, CO92
Yersinia pestis [13] = assay: Antibacterial activity against Yersinia pestis Colorado 92 infected in African green monkey B6988 model assessed as bacterial burden in kidney at 6.25 mg/kg, iv administered within 6 hrs post onset of sustained fever as 30 mins infusion for 5 days (reference value: 7.1 10^7CFU/g); format: functional, CO92
African green monkey [14] = assay: Toxicity in African green monkey B6291 model infected with Yersinia pestis Colorado 92 assessed as serum alanine aminotransferase level at 25 mg/kg, iv administered within 6 hrs post onset of sustained fever as 30 mins infusion for 10 days (reference value: 47 IU/L); format: organism-based; details: chlorocebus sabaeus, in vivo
Yersinia pestis [15] = assay: as §1, with “tracheobronchial lymph nodes” for “liver”, “7.7 10^9CFU/g)” for “5.2 10^8CFU/g)”; format: functional, organism-based; details: CO92, Lymph node
[16] = AUC (0 to 24 hrs) in African green monkey blood at 25 mg/kg administered as iv infusion twice daily for 7 consecutive days measured on day 1 by LC-MS/MS analysis; format: ADME, organism-based; design: dose 25 mg/kg, time < 24 hr, route intravenous; details: chlorocebus aethiops
Yersinia pestis [17] = assay: Antibacterial activity against Yersinia pestis Colorado 92 infected in African green monkey B6872 model assessed as bacterial burden in tracheobronchial lymph nodes at 25 mg/kg, iv administered within 6 hrs post onset of sustained fever as 30 mins infusion for 5 days (reference value: 7.7 10^9CFU/g); format: functional, organism-based; details: CO92, Lymph node
Yersinia pestis [18] = assay: Antibacterial activity against Yersinia pestis Colorado 92 infected in African green monkey C2083 model assessed as bacterial burden in blood at 12.5 mg/kg, iv administered within 6 hrs post onset of sustained fever as 30 mins infusion for 5 days (reference value: 1.2 10^7CFU/ml); format: functional, CO92
African green monkey [19] = assay: Toxicity in African green monkey 7337 model infected with Yersinia pestis Colorado 92 assessed as serum gamma glutamyl-transferase level at 25 mg/kg, iv administered within 6 hrs post onset of sustained fever as 30 mins infusion for 10 days (reference value: 67 IU/L); format: organism-based; details: chlorocebus sabaeus, in vivo
[20] = Toxicity in African green monkey B6140 model infected with Yersinia pestis Colorado 92 assessed as total white blood cell count at 25 mg/kg, iv administered within 6 hrs post onset of sustained fever as 30 mins infusion for 10 days (reference value: 6.8 10^3/microL); format: organism-based; details: chlorocebus aethiops, in vivo
[21] = Cmax in African green monkey blood at 35 mg/kg administered as iv infusion twice daily for 7 consecutive days measured on day 7 by LC-MS/MS analysis; format: ADME, organism-based; design: dose 35 mg/kg, route intravenous; details: chlorocebus aethiops
Yersinia pestis [22] = assay: Antibacterial activity against Yersinia pestis Colorado 92 infected in African green monkey B6436 model assessed as bacterial burden in spleen at 25 mg/kg, iv administered within 6 hrs post onset of sustained fever as 30 mins infusion for 5 days (reference value: 1.6 10^9CFU/g); format: functional, organism-based; details: CO92
African green monkey [23] = assay: Toxicity in African green monkey 7972 model infected with Yersinia pestis Colorado 92 assessed as serum alanine aminotransferase level at 25 mg/kg, iv administered within 6 hrs post onset of sustained fever as 30 mins infusion for 10 days (reference value: 30 IU/L); format: organism-based; details: chlorocebus sabaeus, in vivo
[24] = Toxicity in African green monkey 8067 model infected with Yersinia pestis Colorado 92 assessed as total white blood cell count at 25 mg/kg, iv administered within 6 hrs post onset of sustained fever as 30 mins infusion for 10 days (reference value: 10 10^3/microL); format: organism-based; details: chlorocebus aethiops, in vivo
African green monkey [25] = assay: Toxicity in African green monkey B5994 model infected with Yersinia pestis Colorado 92 assessed as serum creatinine level at 25 mg/kg, iv administered within 6 hrs post onset of sustained fever as 30 mins infusion for 10 days (reference value: 0.6 mg/dl); format: organism-based; details: chlorocebus sabaeus, in vivo
Yersinia pestis [26] = assay: Antibacterial activity against Yersinia pestis Colorado 92 infected in African green monkey B6436 model assessed as bacterial burden in liver at 25 mg/kg, iv administered within 6 hrs post onset of sustained fever as 30 mins infusion for 5 days (reference value: 5.2 10^8CFU/g); format: functional, organism-based; details: CO92

With `CN[C@@H]1[C@@H](O)[C@@H](O[C@@H]2[C@@H](O)[C@H](O[C@H]3OC(CNCCO)=CC[C@H]3N)[C@@H](N)C[C@H]2NC(=O)[C@@H](O)CCN)OC[C@]1(C)O` [PLAZOMICIN] the Activity (Yersinia pestis [1]) was 12 CFU/g, the Activity (African green monkey [2]) was 18 mg/dL and the Activity (African green monkey [3]) was 18 mg/dL. For the same molecule, the Activity (Yersinia pestis [4]) was 17 CFU/g, the Activity (Yersinia pestis [5]) was 44 CFU/g and the half-life [6] was 1.7 h. The Activity (African green monkey [7]) was 24 mg/dL, the Activity (African green monkey [8]) was 38 IU/L and the Activity (African green monkey [9]) was 426 IU/L. For the same molecule, the clearance [10] was 1.67 mL/min/kg, the Activity [11] was 5.8 ×10³ /uL and the Activity (Yersinia pestis [12]) was 39 CFU/g. The Activity (Yersinia pestis [13]) was 23 CFU/g, the Activity (African green monkey [14]) was 68 IU/L and the Activity (Yersinia pestis [15]) was “Below limit of detection”. For the same molecule, the AUC(0-t) at 24 h [16] was 185 µg·h/mL, the Activity (Yersinia pestis [17]) was “Below limit of detection” and the Activity (Yersinia pestis [18]) was 24 CFU/ml. It also gave an Activity (African green monkey [19]) of 63 IU/L, an Activity [20] of 7.2 ×10³ /uL and a Cmax [21] of 185 µg/mL. The Activity (Yersinia pestis [22]) was “Below limit of detection”, the Activity (African green monkey [23]) was 36 IU/L and the Activity [24] was 9.4 ×10³ /uL. For the same molecule, the Activity (African green monkey [25]) was 0.5 mg/dL and the Activity (Yersinia pestis [26]) was “Below limit of detection”.
